# Measured values reported in patent US20220354957A1, “PEPTIDES TARGETING MACROPHAGES, AND CONJUGATES, COMPOSITIONS, AND USES THEREOF” (Twinpig Biolab, Inc., priority 2021, published 2022).
# Legend:
# Type in all cases: cell-based, human
# [1] = Cell viability test (CCK-8) of dKLA-conjugated alanine-substituted peptides
# Protocol: (§1) THP-1 monocytes were differentiated into macrophages (M0) by 24 h incubation with 100 nM phorbol 12-myristate 13-acetate (PMA, Sigma) followed by 24 h incubation in RPMI medium (Invitrogen). Macrophages were polarized in M1 macrophages (M1) by incubation with 20 ng/ml of IFN-γ (Prospec) and 100ng/m1 of LPS (Sigma). Macrophage M2 polarization(M2) was obtained by incubation with 20 ng/ml of interleukin (IL) 4 (Prospec) and 20 ng/ml of interleukin 13 (Pro spec).
# (§2) Polarized cells were treated with 1.5 μM MpepK, A12K, A14K, A17K, A18K, A22K, A25K or A26K peptides for 1 hour and further incubated in RPMI1640 growth medium for 24 hours. Cell viability was analyzed using the CCK-8 assay: CCK-8 reagent (Enzo Life Sciences) was added to each well; incubation was continued for 2 hours, and absorbance was measured at 450 nm with a microplate reader (Molecular Devices).
# (§3) THP-1 cells (1×10^4 cells/well) were differentiated into macrophages with 100 nM PMA (MO) for 24 h and polarized into classical M1 macrophages by treatment of IFN-γ (20 ng/ml) and LPS (100 ng/ml) and LPS-stimulated macrophages (LPS-M1) were induced by LPS (1 m/ml) treatment for 24h. Cells were treated with 1.5 μM of A26K for 1 hour and further incubated in RPMI1640 growth medium for 24 hours. Cell viability was analyzed using the CCK-8 assay. CCK-8 reagent was added to each well and incubated for 1.5-2 hours. Absorbance was measured at 450 nm with a microplate reader.
# M1 macrophages = experiment: as above; conditions: 1.5 μM, 1 hour then 24 hours, CCK-8, compared to control M1 macrophage
# Protocol: as §1, §2, §3
# [2] = Cytotoxicity in in vitro sepsis model (CCK-8); conditions: compared to control, read-out: inhibition (cytotoxic effect) in LPS-M1 macrophages
# Protocol: as §3
# LPS-M1 macrophages = experiment: Expression of pro-inflammatory genes in in vitro sepsis model (real-time quantitative PCR); conditions: 1.5 μM for 1 h, compared to LPS-M1 macrophages
# Protocol: THP-1 cells (2×10^5 cells/well) were differentiated into macrophages with 100 nM PMA (MO) for 24h and polarized into classical M1 macrophages by treatment of IFN-γ (20 ng/ml) and LPS (100 ng/ml) and LPS-M1 macrophages were induced by LPS (1 m/ml) treatment for 2 h. Polarized cells were treated with 1.5 μM of A26K for 1 hour and further incubated in RPMI1640 growth medium for 24 hours. Expression levels of pro-inflammatory genes (IL-8, TNF-α, NF-kB, IL-1(3 and CXCL10) were quantified by real-time quantitative PCR.
smiles,measurement,setting,value
CC[C@H](C)[C@H](NC(=O)[C@H](CC(C)C)NC(=O)[C@H](C)NC(=O)[C@@H]1CCCN1C(=O)[C@H](CC(C)C)NC(=O)CNC(=O)[C@@H](NC(=O)[C@@H](NC(=O)[C@H](CC(C)C)NC(=O)[C@@H](NC(C)=O)C(C)C)[C@@H](C)O)[C@@H](C)O)C(=O)N[C@@H](CO)C(=O)N[C@@H](Cc1c[nH]c2ccccc12)C(=O)N[C@H](C(=O)N[C@@H](CCCCN)C(=O)N[C@@H](CCCNC(=N)N)C(=O)N[C@@H](CCCCN)C(=O)N[C@@H](CCCNC(=N)N)C(=O)N[C@@H](CCC(N)=O)C(=O)N[C@@H](C)C(=O)NCC(=O)NCC(=O)NCC(=O)NCC(=O)N[C@@H](CO)C(=O)N[C@H](CCCCN)C(=O)N[C@H](CC(C)C)C(=O)N[C@H](C)C(=O)N[C@H](CCCCN)C(=O)N[C@H](CC(C)C)C(=O)N[C@H](C)C(=O)N[C@H](CCCCN)C(=O)N[C@H](CCCCN)C(=O)N[C@H](CC(C)C)C(=O)N[C@H](C)C(=O)N[C@H](CCCCN)C(=O)N[C@H](CC(C)C)C(=O)N[C@H](C)C(=O)N[C@H](CCCCN)C(=O)O)[C@@H](C)CC [A26K],cytotoxicity,"[1]; 1.5 μM, compared to control, read-out: inhibition of viability in M1 macrophages",53%
same,IC50,"[1]; 0.01-10 μM, read-out: cytotoxicity IC50 in M1 macrophages",1190 nM
same,cytotoxic effect in M1 macrophages,M1 macrophages,great significant selective cytotoxic effect
same,inhibition at 1.5 µM,[2],37%
same,"expression levels of IL8, TNF-α, IL-1β, NF-kB and CXCL10 enhanced by LPS stimulation",LPS-M1 macrophages,significantly inhibited
